PMC6780696, “New Peptides from The Marine-Derived Fungi Aspergillus allahabadii and Aspergillus ochraceopetaliformis” (Marine Drugs, 2019)
Positions of bridges follow the written chain, without caps; N, C: chain ends. Non-standard residues stand in square brackets, D forms with d. Residues, ends and D or L forms follow the SMILES beside them. NMeF = CN[C@@H](Cc1ccccc1)C(=O)O

Experiments:
[1] = target: T1, recombinant ICL from C. albicans (Candida albicans, UniProt Q9P8Q7); assay: ICL inhibition assay; format: biochemical; conditions: 37 °C, 30 min
T1 construct: made in house
T1 sequence (Q9P8Q7 whole entry): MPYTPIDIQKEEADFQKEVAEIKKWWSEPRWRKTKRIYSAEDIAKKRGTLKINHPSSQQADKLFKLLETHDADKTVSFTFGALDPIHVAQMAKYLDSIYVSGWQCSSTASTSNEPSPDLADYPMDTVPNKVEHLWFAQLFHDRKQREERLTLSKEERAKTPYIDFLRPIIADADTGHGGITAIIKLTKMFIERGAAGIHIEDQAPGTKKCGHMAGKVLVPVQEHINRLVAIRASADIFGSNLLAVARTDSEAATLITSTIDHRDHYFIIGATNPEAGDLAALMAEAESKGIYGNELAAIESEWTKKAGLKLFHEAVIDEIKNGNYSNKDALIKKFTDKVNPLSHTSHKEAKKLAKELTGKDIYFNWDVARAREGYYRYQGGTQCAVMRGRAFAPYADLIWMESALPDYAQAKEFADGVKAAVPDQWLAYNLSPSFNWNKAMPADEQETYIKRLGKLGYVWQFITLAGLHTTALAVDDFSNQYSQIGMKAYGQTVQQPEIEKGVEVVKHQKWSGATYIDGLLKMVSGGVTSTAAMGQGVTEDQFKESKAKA
Description: The recombinant ICL from C. albicans was prepared and the inhibitory activity of the test compounds against ICL was determined by previously documented procedures. […] The increase in intensity of absorbance resulting from the formation of glyoxylate phenylhydrazone was observed using an UVmini-1240 spectrophotometer (SHIMADZU, Tokyo, Japan) at a wavelength of 324 nm. A known ICL inhibitor, 3-nitropropionic acid, was used as a reference control.

[2] = target: T2, S. aureus-derived recombinant SrtA (Staphylococcus aureus, UniProt Q2FV99); assay: biochemical
T2 construct: made in house; host or cells: E. coli
T2 sequence (Q2FV99 whole entry): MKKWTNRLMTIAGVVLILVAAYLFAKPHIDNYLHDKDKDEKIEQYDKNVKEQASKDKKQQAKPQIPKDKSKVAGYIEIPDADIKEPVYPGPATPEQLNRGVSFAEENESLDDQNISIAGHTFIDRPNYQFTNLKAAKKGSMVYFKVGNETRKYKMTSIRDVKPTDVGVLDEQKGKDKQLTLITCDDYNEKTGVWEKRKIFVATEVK

[3] = target: isocitrate lyase (ICL) derived from C. albicans; parameters: method as in PMID 31167388; conditions: previously reported; cited from earlier work
[4] = tested on: Staphylococcus epidermidis; parameters: method as in PMID 25001296; conditions: cited from earlier work
Bacillus cereus = tested on: Bacillus cereus; parameters: method as in PMID 25001296; conditions: cited from earlier work

Q: Which IC50 [1] does the source give for `O=C(O)CC[N+](=O)[O-]` [3-Nitropropionic acid] here?
A: 18.5 µM

Q: With `COc1ccc2cc3[n+](cc2c1OC)CCc1cc2c(cc1-3)OCO2` [Berberine chloride] as the compound, how does the IC50 [2] read?
A: 104 µM

Q: For `CC(C)C[C@@H]1NC(=O)[C@@H]2CCCN2C(=O)[C@H](Cc2ccc(O)cc2)NC(=O)[C@H](Cc2ccccc2)N(C)C(=O)[C@H](C)NC1=O` [Compound 1, JG002CPA] (cyclo(A[NMeF]YPL)), which IC50 [2] is on record?
A: 70 µM

Q: With `CC(C)[C@@H]1NC(=O)[C@@H]2CCCN2C(=O)[C@H](Cc2ccc(O)cc2)NC(=O)[C@H](Cc2ccccc2)N(C)C(=O)[C@H](C)NC1=O` [Compound 2, JG002CPB] (cyclo(A[NMeF]YPV)) as the compound, how does the IC50 [1] read?
A: 117 µM

Q: What about the IC50 [2] of the same compound?
A: 53.1 µM

Q: For `CC(=O)N[C@@H]1C(=O)N[C@H](C(C)C)C(=O)N2CCC[C@H]2C(=O)N[C@@H](Cc2ccc(O)cc2)C(=O)N(C)[C@@H](Cc2ccccc2)C(=O)N[C@@H](C)C(=O)O[C@@H]1C` [Compound 3, FJ120DPA] (Ac-T[dV]PY[NMeF]A; ester 1-C), which IC50 [2] is on record?
A: 132 µM

Q: For `CC(=O)N[C@H](C(=O)N[C@@H](C(=O)N1CCC[C@H]1C(=O)N[C@@H](Cc1ccc(O)cc1)C(=O)N(C)[C@@H](Cc1ccccc1)C(=O)N[C@@H](C)C(=O)O)C(C)C)[C@@H](C)O` [Compound 4, FJ120DPB] (Ac-T[dV]PY[NMeF]A-OH), which IC50 [2] is on record?
A: 77 µM

Q: With `CC(C)[C@@H]1NC(=O)[C@H](Cc2ccccc2)NC1=O` [cyclo(L-Phe-L-Val)] as the compound, how does the IC50 [3] read?
A: 110 µM

Q: With asperpeptide A as the compound, how does the MIC [4] read?
A: 12.5 µM

Q: And the MIC (Bacillus cereus)?
A: 12.5 µM
